# Where “and” joins values, the source holds several entries; their conditions need not be identical. Equal entries are not always repeated.
# Tested on: P. falciparum 3D7 growth, pLDH absorbance
# Experiment: P. falciparum 3D7 growth inhibition, dose response, strain 3D7 (AID 2305)
row,Structure (SMILES),IC50
1,CN(C)c1ccc(CN2CCC(NC(=O)c3ccc(-c4ccccc4F)s3)CC2)cc1,1120 nM
2,Cc1noc(-c2ccccc2)c1NC(=O)N1CCN(CCCCCCNC(=O)/C=C/c2ccc(Cl)c(Cl)c2)CC1,880 nM
3,Cc1ccc(NC(=O)c2ccc(CN3CCCN(CC4CCCCC4)CC3)cc2)cc1F,290 nM
4,O=C(NCc1ccccc1)C1Cc2c([nH]c3ccc(Br)cc23)C2(CCN(Cc3ccccc3)CC2)N1 (stereo unspecified),870 nM
5,CC1(C)N=C(N)NC(NOCCCCCCONC2=NC(C)(C)N=C(N)N2)=N1,30 nM
6,CC[C@H]1CN2CC[C@@H]1C[C@H]2[C@H](O)c1cc(-c2ccc(Cl)c(Cl)c2)nc2ccc(O)cc12,260 nM
7,c1ccc2c(C3CCN(CCCCOc4ccc5c(c4)CCN(CC4CC4)CC5)CC3)c[nH]c2c1,980 nM
8,CSc1ccc2nccc(Nc3ccc(Oc4ccccc4)cc3)c2c1,870 nM
9,COc1ccc(Cn2c(Nc3cccc(C(F)(F)F)c3)nc3cc(C(=O)NCCCN(C)C)ccc32)cc1Cl,910 nM
10,O=C(/C=C/c1ccc(Cl)c(Cl)c1)NCCCCCN1CCCC(CNC(=O)Nc2ccc(C(F)(F)F)cc2)C1 (stereo unspecified),670 nM
11,O=C(NCCCN1CCC(N2CCCCC2)CC1)C1=Cc2cc(Br)ccc2OC1,850 nM
12,Cc1ccc(S(=O)Cc2ccc(Cl)cc2)cc1 (stereo unspecified),200 nM
13,O=C(CN1CCCC1)Nc1cccc(C(=O)Nc2cccc(C(F)(F)F)c2)c1,510 nM
14,O=c1cc(NCCC2CC=CCN2Cc2ccc(Cl)c(Cl)c2)[nH]c2ccccc12 (stereo unspecified),1730 nM
15,FC(F)(F)Oc1ccc(-c2cnc3ccc(NCc4ccncc4)nn23)cc1,870 nM
16,CC1(C)N=C(N)N=C(N)N1OCc1cc(Cl)c(CON2C(N)=NC(N)=NC2(C)C)cc1Cl,40 nM
17,COc1ccc(C2C(C(=O)Nc3cc(Cl)c(OC)cc3OC)c3ccccc3C(=O)N2C)cc1 (stereo unspecified),820 nM
18,CO/C(=C\C=C\c1cc2cc(Cl)c(Cl)cc2[nH]1)C(=O)NCCN1CCCCC1,1400 nM
19,CC(=O)Nc1ccc(OCCN(Cc2ccccc2OC(F)(F)F)c2ccc(C(F)(F)F)c(C#N)c2)c(Cl)c1,460 nM
20,CCC(C)c1ccc(NC(=O)C(C)c2ccc([N+](=O)[O-])cc2)cc1 (stereo unspecified),180 nM
21,Cc1cc(SC(C)(C)C)cc2c(Cl)c(C(N)=O)cnc12,1090 nM
22,CC(C)N1CCC(NC(=O)N2CCCN(c3ncnc4cc(-c5ccccc5)sc34)CC2)CC1,860 nM
23,CCCCOP(=O)(COc1ccc(CCN(CC(O)COc2cccc3[nH]c4ccccc4c23)CC(O)COc2cccc3[nH]c4ccccc4c23)cc1)C1CCCCC1 (stereo unspecified),940 nM
24,CC(C)(CNCc1cc(Cl)cc(Cl)c1)c1nc(-c2ccc(Cl)c(O)c2)c(-c2ccnc(N)n2)[nH]1,1010 nM

row,Structure (SMILES),IC50
1,Cc1cccc2[nH]c(-c3cccc(-c4cccc(CNCCN5CCNCC5)c4)c3)nc12,970 nM
2,COc1ccc2ncc(C#N)c(CCN3CCC(NCc4ccc5c(n4)NC(=O)CS5)CC3)c2n1,840 nM
3,c1cc2nc(CCCc3nc4ccc(C5=N[C@H]6CCCC[C@H]6N5)cc4[nH]3)[nH]c2cc1C1=N[C@@H]2CCCC[C@@H]2N1,1240 nM
4,COc1cccc(C(=O)Nc2ccc(-c3nc4ccccc4[nH]3)cc2)c1,800 nM
5,CCCCCOc1ccc(CC(C)NCC(O)c2cccc(Cl)c2)cc1 (stereo unspecified),650 nM
6,COc1cccc(Nc2nccc(NCC(O)c3cccc(C(F)(F)F)c3)n2)c1 (stereo unspecified),700 nM
7,Cc1[nH]c(C)c(-c2ccc(OCCCc3ccccn3)cc2)c(=O)c1Br,210 nM
8,CC(C)CN1CCN(c2nc(C#N)c3c(c2C(=S)NC2CCCCC2)CC(C)(C)OC3)CC1,300 nM
9,O=C(NC1CCCCC1)N(Cc1ccc(-c2cccc(CNC3CCCC3)c2)cc1)C1CCN(Cc2ccccc2)CC1,780 nM
10,CCCN(CCC)CCOc1ccc(C(O)(C#CC(O)(c2ccc(OCCN(CCC)CCC)cc2)c2cccc(Cl)c2)c2cccc(Cl)c2)cc1 (stereo unspecified),790 nM
11,CC(=O)Nc1ccc2[nH]cc(C3CCN(CC4CCN(C(=O)/C=C/c5ccc(Cl)c(Cl)c5)CC4)CC3)c2n1,160 nM
12,O=C(C=Cc1ccc(Cl)c(Cl)c1)NCCCCCN1CCC(CCCNC(=O)[C@@H]2C[C@H]2c2ccccc2)CC1,770 nM
13,Cc1cc(C)c(O)c(-c2cc(C(=O)Nc3ccc(S(=O)(=O)N4CC(C)OC(C)C4)cc3)[nH]n2)c1 (stereo unspecified),660 nM
14,CCCNc1ccc2nccc(CCN3CCC(NCc4ccc5c(c4)NC(=O)CS5)CC3)c2n1,580 nM
15,COC(=O)c1ccc(CCCNCC(O)c2cccc(C(F)(F)F)c2)cc1 (stereo unspecified),800 nM
16,CC(C)N1CCC(N(Cc2ccc(-c3ccc(C(F)(F)F)cc3)cc2)C(=O)Cn2c(CCc3cccc(F)c3F)cc(=O)c3ccccc32)CC1,850 nM
17,CCCCc1cc(=O)oc2cc(C)cc(OCc3ccccc3F)c12,1030 nM
18,O=C(C1CC1)N1c2ccccc2CCc2ccccc21,830 nM
19,Clc1ccc(Nc2nc(Nc3ccc(Cl)c(Cl)c3)nc(Sc3nc4ccccc4[nH]3)n2)cc1Cl,490 nM
20,CC(=O)Nc1ccc(S(=O)(=O)N2CCN(c3nc(NC4CCCC4)c4ccccc4n3)CC2)cc1,1030 nM
21,CN1CCN(c2ccc(Nc3c(C(N)=O)cnc4cc(-c5ccoc5)ccc34)cc2C(F)(F)F)CC1,780 nM
22,Oc1ccc2ncnc(Nc3ccc(OCc4cccc(F)c4)c(Cl)c3)c2c1,990 nM
23,S=C(NCCc1ccc(Cl)cc1)NC1CCC(CN2CCC(c3c[nH]c4ccccc34)CC2)CC1 (stereo unspecified),700 nM
24,CN(C)CCCNC(=O)c1ccccc1Sc1ccccc1C#N,1140 nM

row,Structure (SMILES),IC50
1,CCc1cn2c3c(cc(C(=O)N[C@@H](Cc4ccccc4)[C@H](O)CNC(C)C)cc13)N(C)S(=O)(=O)C2,320 nM
2,Cc1ccc(NC(=O)c2ccc3ncccc3c2)cc1OC1CCN(Cc2ccc(F)cc2)CC1,940 nM
3,O=C(CN1CCN(C(=O)c2ccco2)CC1)Nc1ccccc1Br,560 nM
4,COc1cc(NC(=O)c2sc(-c3ccc(Cl)cc3)cc2NC(=O)N2CCCC2)ccc1OCCN1CCCC1,570 nM
5,COc1ccc2nc3cc(Cl)ccc3c(NCCCN3CCNCC3)c2c1,230 nM
6,CN(C)CC(=O)Nc1ccc(Nc2nccc(NCC(O)c3ccccc3)n2)cc1 (stereo unspecified),970 nM
7,COc1ccc(OC)c(Cc2cnc3nc(N)nc(N)c3c2C)c1,10 nM
8,Cc1ccc2c(NN=Cc3ccc(N(C)C)cc3)cc(C)nc2c1,880 nM
9,O=C(NCc1cccc(C(F)(F)F)c1)c1ccc(-c2nc3cc(F)c(F)cc3[nH]2)cc1,780 nM
10,COc1ccc(CNC(=O)NC2CCN(c3ccnc(Nc4cc(OC)c(OC)c(OC)c4)n3)C2)cc1 (stereo unspecified),950 nM
11,O=C(c1ccc(Cl)cc1)N1CCOC(CCN2CCC(c3ccccc3)CC2)(c2ccc(Cl)c(Cl)c2)C1 (stereo unspecified),240 nM
12,COc1cccc2c(NN=Cc3ccccc3[N+](=O)[O-])cc(C)nc12,420 nM
13,Cc1cccc2[nH]c(-c3cccc(-c4cccc(CNCc5cnn(-c6ccccc6)n5)c4)c3)nc12,660 nM
14,COc1ccccc1NC(=O)Nc1ccc(-c2cccc(-c3nc4ccccc4[nH]3)c2)cc1,640 nM
15,Cc1[nH]cc(Br)c(=O)c1-c1ccc(Oc2ccc(OC(F)(F)F)cc2)cc1,330 nM
16,CN1CCN(CCCN(Cc2csc(-c3ccc(CNCc4ccccc4)cc3)n2)C(=O)Nc2cccc(Cl)c2)CC1,790 nM
17,CN(/N=C/C=C/c1ccc(Cl)cc1)c1nc(NCCc2ccc(O)cc2)nc(N2CCNCC2)n1,870 nM
18,CC(C)(CNC(=O)C1CCN(CCOCc2ccccc2)CC1)c1nc(-c2ccc(Cl)c(O)c2)c(-c2ccncc2)[nH]1,620 nM
19,Cc1ccc(-n2nc3ccc(NC(=O)c4ccc([N+](=O)[O-])o4)cc3n2)cc1C,400 nM
20,CN(C)CCNCc1cccc(-c2cccc(-c3nc4ccccc4[nH]3)c2)c1,770 nM
21,O=C(C=Cc1ccc(Cl)c(Cl)c1)NCCCCCN1CCCC(CCCNS(=O)(=O)c2ccc(Br)cc2)C1 (stereo unspecified),960 nM
22,NC(N)=NN=CC(=O)Nc1ccc(C(F)(F)F)cc1,930 nM
23,O=c1cc(NCc2ccccc2NCc2ccc(Cl)c(Cl)c2)[nH]c2ccccc12,840 nM
24,Cc1cccc2[nH]c(-c3cccc(-c4cccc(NC(=O)N[C@@H]5C[C@H]5c5ccccc5)c4)c3)nc12,710 nM

row,Structure (SMILES),IC50
1,Cc1ccc(Nc2nc(N)c3ccccc3n2)cc1,840 nM
2,O=C(CCc1cccnc1)Nc1ccc(-c2cccc(-c3nc4ccc(F)cc4[nH]3)c2)cc1,920 nM
3,Cn1c(Nc2cc(C(C)(C)C)on2)nc2cc(Nc3ccnc(Nc4ccc(CS(C)(=O)=O)cc4)n3)ccc21,980 nM
4,O=c1cc(NCCCNCc2cc3c(Cl)cccc3s2)[nH]c2ccccc12,470 nM
5,COC(=O)CNC(c1ccccc1)c1cc(Br)ccc1NC(=O)c1ccccc1Br (stereo unspecified),990 nM
6,O=C(C=C1c2ccccc2-c2ccccc21)NC1CCC(CN2CCC(c3c[nH]c4ccccc34)CC2)CC1 (stereo unspecified),790 nM and 700 nM
7,Oc1ccc(-c2ccccc2)cc1CN1CCCCCC1,1170 nM
8,CC[C@H]1CN2CC[C@H]1C[C@@H]2[C@@H](O)c1cc(Cl)nc2ccc(OC)cc12,60 nM
9,CCN(CC)CCCC(C)Nc1c(-c2ccc(Br)cc2)cnc2ccccc12 (stereo unspecified),700 nM
10,CC(C)N1CCN(C(CN2CCN(CCCOc3ccccc3-c3ccccc3)CC2)c2ccc(F)cc2)CC1 (stereo unspecified),790 nM
11,Cc1cc(N[C@@H](CC(C)C)C(=O)NCc2cccc(F)c2)nc(NCCc2ccc(F)cc2)n1,1470 nM
12,O=C(NCc1ccccc1)c1ncn(CCCN2CCC(N3CCCC3)CC2)c1-c1ccc(Cl)c(Cl)c1,1120 nM
13,Cc1nc(Nc2ccc(F)cc2)nc(N2CCc3cc(O)ccc3C2C)c1C (stereo unspecified),750 nM
14,CCCc1cc(C)ccc1OCCCON1C(NC(=O)OCC)=NC(NC(=O)OCC)=NC1(C)C,40 nM
15,CN1CCN(c2ccnc3ccc(NC(=O)Nc4ccc(Br)cc4)cc23)CC1,90 nM
16,C[C@@H]1CN(c2ccnc3ccc(Sc4ccc(Oc5ccccc5)cc4)cc23)C[C@H](C)N1,780 nM
17,COc1cccc(C(=O)Nc2ccc(Nc3nc(C)cc(N(C)C)n3)cc2)c1OC,1020 nM
18,COc1cc(Cc2cnc(NCCN3CCNCC3)nc2N)ccc1OCc1ccc(C(F)(F)F)cc1,920 nM
19,COc1ccc(Nc2ncc3c(-c4cccc(NC(=O)Cc5cccc(F)c5)c4)c[nH]c3n2)cc1OC,570 nM
20,N=C(N)c1cccc(-c2cc(-c3cccc(C(=N)N)c3)on2)c1,90 nM
21,COc1ccc(NC(=O)CCNc2cc(C)nc(NCCOc3ccccc3)n2)cc1,750 nM
22,Cn1c(Nc2cc(C(C)(C)C)on2)nc2cc(Nc3ccnc(Nc4cccc(S(=O)(=O)N5CCOCC5)c4)n3)ccc21,530 nM
23,O=C(NCCCN1CCCC1=O)c1cnc(N2CCC(Oc3ccccc3)CC2)c(Cl)c1,300 nM
24,O=C(/C=C/c1ccc(Cl)c(Cl)c1)NCCCCCN1CCCN(C(=O)Nc2cccc(F)c2)CC1,760 nM
